Where only a bound is given, the exact number is not on record here.

T1 sequence (Q8IYL9 whole entry): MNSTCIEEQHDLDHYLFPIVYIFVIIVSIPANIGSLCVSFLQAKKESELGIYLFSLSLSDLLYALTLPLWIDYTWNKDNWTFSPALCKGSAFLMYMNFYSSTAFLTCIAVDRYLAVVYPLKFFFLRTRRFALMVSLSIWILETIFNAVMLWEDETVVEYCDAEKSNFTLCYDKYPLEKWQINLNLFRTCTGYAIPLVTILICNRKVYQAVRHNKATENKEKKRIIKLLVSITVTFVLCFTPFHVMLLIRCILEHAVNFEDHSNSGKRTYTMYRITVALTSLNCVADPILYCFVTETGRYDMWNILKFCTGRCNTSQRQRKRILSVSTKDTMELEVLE

This test addresses T1, human recombinant GPR65 (Homo sapiens, UniProt Q8IYL9).
T1 construct: host or cells: 1321N1 human astrocytoma cells (1321N1-hrGPR65)
Briefly: Human GPR65 cAMP HTRF antagonist assay. In kind it is cell-based. The note with it: 1321N1-hrGPR65 cells stimulated at assay pH 7.2; suppression of cAMP rise; read-out: hGPR65 IC50. How it is done: Human GPR65 Cyclic Adenosine Monophosphate (cAMP) Homogeneous Time Resolved Fluorescence (HTRF) Antagonist Assay Procedure
IC50 data was obtained by the following procedure:
1321N1 human astrocytoma cells stably expressing human recombinant GPR65 (1321N1-hrGPR65 cells, EuroscreenFast) were cultured according to the vendor's instructions.
Compounds were tested for their ability to antagonise GPR65, through measuring the concentration of cytoplasmic cAMP following treatment of the cells at a pH of 7.2 to activate GPR65 signalling and addition of the compound to be tested. The extent to which the expected rise in cAMP concentration upon GPR65 activation was suppressed by the added compound is indicative of its potency. The assay was carried out according to EuroscreenFast assay methodology as follows.
On the day of the assay, test compounds were added to 384-well, low volume, white microtiter plates by acoustic dispensing. KRH buffer (5 mM KCl, 1.25 mM MgSO4, 124 mM NaCl, 25 mM HEPES, 13.3 mM Glucose, 1.25 mM KH2PO4 and 1.45 mM CaCl2) was adjusted to pH 6.5, pH 7.6 and pH 8.4 by adding NaOH. 1321N1-hGPR65 cells were rapidly thawed and diluted in KRH, pH 7.6 prior to centrifugation at 300×g for 5 min and resuspension in assay buffer (KRH, pH 7.6, supplemented with 1 mM 3-isobutyl-1-methylxanthine (IBMX) and 200 μM ethylenediaminetetraacetic acid (EDTA)). Cells were added to assay plates at a density of 2,000 cells per well in a volume of 5 μl. Assay plates were briefly centrifuged at 100×g and then incubated at room temperature for 30 min. Cells were stimulated by the addition of 5 μL KRH, pH 6.5, to achieve an assay pH of 7.2, while control wells received 5 μl KRH, pH 8.4 to achieve an assay pH of 7.9. Assay plates were briefly centrifuged at 100×g and then incubated at room temperature for 30 min.
Accumulation of cAMP was detected by cAMP HTRF kit (Cisbio). d2-labeled cAMP and cryptate-labeled anti-cAMP antibody in Lysis and Detection Buffer (Cisbio) were added to assay plates, and the plates were incubated at room temperature for 1 h. HTRF measurements were performed using a Pherastar FSX instrument. Acceptor and donor emission signals were measured at 665 nm and 620 nm, respectively, and HTRF ratios were calculated as signal665 nm/signal620 nm×10^4. Data were normalised to high and low control values and fitted with 4-parameter logistic regression to determine hGPR65 IC50 values for the test compounds, which are shown in Table 1.
(In general: TR-FRET usually uses a lanthanide donor and a delayed reading to cut background.)
For orientation: IC50 means the concentration needed to halve the response being measured. Turning to `O=C(Nc1ccc(C(F)(F)F)c(Cl)c1)N1CCc2c[n+]([O-])ccc2C1` [Compound 79, 6-((3-Chloro-4-(trifluoromethyl)phenyl)carbamoyl)-5,6,7,8-tetrahydro-2,6-naphthyridine 2-oxide], the IC50 was less than 0.5 µM.

`O=C(Nc1ccc(C(F)(F)F)c(Cl)c1)N1CCc2cc(Cl)ncc2C1` [Compound 91, 6-Chloro-N-(3-chloro-4-(trifluoromethyl)phenyl)-3,4-dihydro-2,7-naphthyridine-2(1H)-carboxamide]: the IC50 was 0.5 to 5 µM.

On to `O=C(Nc1ccc(Cl)c(Cl)c1)N1CCc2cn3ccnc3cc2C1` [Compound 115, N-(3,4-Dichlorophenyl)-6,7-dihydroimidazo[1,2-b][2,6]naphthyridine-8(9H)-carboxamide], for which the IC50 is more than 5 µM.

On to `COc1ccc2c(c1)CCN(C(=O)Nc1ccc(Cl)c(Cl)c1)C2` [Compound 65, N-(3,4-Dichlorophenyl)-6-methoxy-3,4-dihydroisoquinoline-2(1H)-carboxamide], for which the IC50 is more than 5 µM.

On to `O=C(Nc1ccc(C(F)(F)F)c(Cl)c1)N1CCc2cnc(Cl)cc2C1` [Compound 90, 7-Chloro-N-(3-chloro-4-(trifluoromethyl)phenyl)-3,4-dihydro-2,6-naphthyridine-2(1H)-carboxamide], for which the IC50 was 0.5 to 5 µM.

With `O=C(Nc1ccc(Cl)c(Cl)c1)N1CCc2oncc2C1` [Compound 80, N-(3,4-Dichlorophenyl)-6,7-dihydroisoxazolo[4,5-c]pyridine-5(4H)-carboxamide], the IC50 lay in the range of 0.5 to 5 µM.

In the case of `O=C(Nc1ccc(Cl)c(Cl)c1)N1CCc2[nH]c(=O)ccc2C1` [Compound 78, N-(3,4-Dichlorophenyl)-2-oxo-1,5,7,8-tetrahydro-1,6-naphthyridine-6(2H)-carboxamide], the IC50 was more than 5 µM.

Consider `Nc1cc2c(cn1)CN(C(=O)Nc1ccc(Cl)c(Cl)c1)CC2` [Compound 84, 6-Amino-N-(3,4-dichlorophenyl)-3,4-dihydro-2,7-naphthyridine-2(1H)-carboxamide], for which the IC50 is more than 5 µM.

For the compound `Cc1ccc2c(c1)CCN(C(=O)Nc1ccc(C(F)(F)F)c(Cl)c1)C2` [Compound 136, N-(3-Chloro-4-(trifluoromethyl)phenyl)-6-methyl-3,4-dihydroisoquinoline-2(1H)-carboxamide], the IC50 is 0.5 to 5 µM.

`O=C(Nc1ccc(C(F)(F)F)c(Cl)c1)N1CCc2cc(C(F)(F)F)ccc2C1` [Compound 72, N-(3-Chloro-4-(trifluoromethyl)phenyl)-6-(trifluoromethyl)-3,4-dihydroisoquinoline-2(1H)-carboxamide]: the IC50 is more than 5 µM.

`COc1ccc2c(c1)CN(C(=O)Nc1ccc(Cl)c(Cl)c1)CC2` [Compound 61, N-(3,4-Dichlorophenyl)-7-methoxy-3,4-dihydroisoquinoline-2(1H)-carboxamide]: the IC50 was in the range of 0.5 to 5 µM.

For the compound `CC1c2ccc(F)cc2CCN1C(=O)Nc1ccc(Cl)c(Cl)c1` (centres unmarked) [Compound 93, N-(3,4-Dichlorophenyl)-6-fluoro-1-methyl-3,4-dihydroisoquinoline-2(1H)-carboxamide], the IC50 was less than 0.5 µM.

As for `O=C(Nc1ccc(Cl)c(Cl)c1)N1CCc2cc(-c3ccsc3)ccc2C1` [Compound 128, N-(3,4-Dichlorophenyl)-6-(thiophen-3-yl)-3,4-dihydroisoquinoline-2(1H)-carboxamide], the IC50 was more than 5 µM.

For `Nc1nccc2c1CCN(C(=O)Nc1ccc(Cl)c(Cl)c1)C2` [Compound 119, 5-Amino-N-(3,4-dichlorophenyl)-3,4-dihydro-2,6-naphthyridine-2(1H)-carboxamide], the IC50 was more than 5 µM.

For the compound `O=C(Nc1ccc(Cl)c(Cl)c1)N1CCc2cc(Cl)ccc2C1` [Compound 52, 6-Chloro-N-(3,4-dichlorophenyl)-3,4-dihydroisoquinoline-2(1H)-carboxamide], the IC50 was less than 0.5 µM.

Take `O=C(Nc1ccc(Cl)c(Cl)c1)N1CCc2cc(F)ccc2C1` [Compound 42, N-(3,4-Dichlorophenyl)-6-fluoro-3,4-dihydroisoquinoline-2(1H)-carboxamide]: the IC50 is less than 0.5 µM.

In the case of `Cc1ccc2c(c1)CN(C(=O)Nc1ccc(C(F)(F)F)c(Cl)c1)CC2` [Compound 35, N-(3-Chloro-4-(trifluoromethyl)phenyl)-7-methyl-3,4-dihydroisoquinoline-2(1H)-carboxamide], the IC50 was 0.5 to 5 µM.

Consider `O=C(Nc1ccc(Cl)c(Cl)c1)N1CCc2cn3cnnc3cc2C1` [Compound 116, N-(3,4-Dichlorophenyl)-6,7-dihydro-[1,2,4]triazolo[4,3-b][2,6]naphthyridine-8(9H)-carboxamide], for which the IC50 was more than 5 µM.

As to `O=C(Nc1ccc(C(F)(F)F)c(Cl)c1)N1CCc2ccncc2C1` [Compound 17, N-(3-Chloro-4-(trifluoromethyl)phenyl)-3,4-dihydro-2,7-naphthyridine-2(1H)-carboxamide], the IC50 lay in the range of 0.5 to 5 µM.

`N#Cc1ccc2c(c1)CCN(C(=O)Nc1ccc(C(F)(F)F)c(Cl)c1)C2` [Compound 39, N-(3-Chloro-4-(trifluoromethyl)phenyl)-6-cyano-3,4-dihydroisoquinoline-2(1H)-carboxamide]: the IC50 was less than 0.5 µM.

As for `O=C(Nc1ccc(C(F)(F)F)c(Cl)c1)N1CCc2c(F)cccc2C1` [Compound 36, N-(3-Chloro-4-(trifluoromethyl)phenyl)-5-fluoro-3,4-dihydroisoquinoline-2(1H)-carboxamide], the IC50 is less than 0.5 µM.

As to `O=C(Nc1ccc(Cl)c(Cl)c1F)N1CCc2cc(=O)[nH]cc2C1` [Compound 118, N-(3,4-Dichloro-2-fluorophenyl)-6-oxo-3,4,6,7-tetrahydro-2,7-naphthyridine-2(1H)-carboxamide], the IC50 is 0.5 to 5 µM.

Turning to `O=C(Nc1ccc(Cl)c(Cl)c1)N1CCc2cc3ncnn3cc2C1` [Compound 111, N-(3,4-Dichlorophenyl)-8,9-dihydro-[1,2,4]triazolo[1,5-b][2,7]naphthyridine-7(6H)-carboxamide], the IC50 was more than 5 µM.

Consider `O=C(Nc1ccc(Cl)c(Cl)c1)N1CCc2ccc(Cl)cc2C1` [Compound 138, 7-Chloro-N-(3,4-dichlorophenyl)-3,4-dihydroisoquinoline-2(1H)-carboxamide], for which the IC50 is 0.5 to 5 µM.

On to `COc1ccc2c(c1)CCN(C(=O)Nc1ccc(Cl)c(C(F)(F)F)c1)C2` [Compound 66, N-(4-Chloro-3-(trifluoromethyl)phenyl)-6-methoxy-3,4-dihydroisoquinoline-2(1H)-carboxamide], for which the IC50 fell in the range of 0.5 to 5 µM.

Take `O=C(Nc1ccc(C(F)(F)F)c(Cl)c1)N1CCc2cc(=O)[nH]cc2C1` [Compound 74, N-(3-Chloro-4-(trifluoromethyl)phenyl)-6-oxo-3,4,6,7-tetrahydro-2,7-naphthyridine-2(1H)-carboxamide]: the IC50 is less than 0.5 µM.

Regarding `O=C(Nc1ccc(Cl)c(Cl)c1)N1CCc2c(ccnc2F)C1` [Compound 120, N-(3,4-Dichlorophenyl)-5-fluoro-3,4-dihydro-2,6-naphthyridine-2(1H)-carboxamide], the IC50 was less than 0.5 µM.

As for `O=C(Nc1ccc(Cl)c(Cl)c1)N1CCc2ncncc2C1` [Compound 1, N-(3,4-Dichlorophenyl)-7,8-dihydropyrido[4,3-d]pyrimidine-6(5H)-carboxamide], the IC50 fell in the range of 0.5 to 5 µM.

In the case of `O=C(Nc1ccc(C(F)(F)F)c(Cl)c1)N1CCc2c(Cl)cccc2C1` [Compound 57, 5-Chloro-N-(3-chloro-4-(trifluoromethyl)phenyl)-3,4-dihydroisoquinoline-2(1H)-carboxamide], the IC50 lay in the range of 0.5 to 5 µM.
